Biological target: p38 MAP-kinase (Homo sapiens, UniProt Q16539)
Experiment: Enzymatic assay: inhibition of p38 MAP-kinase (phosphorylation of GST-tagged ATF2, chemoluminescence bead readout)
Assay type: biochemical
Conditions: inhibitor 1 μM; activated p38 MAP-kinase 1 nM; 4 h preincubation; ATP 100 μM; ATF2 10 nM; read-out: % inhibitory effect at 1 μM
Outline: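 Activated human p38 MAP-kinase (1 nM) preincubated 4 h at ambient temperature with compound at 1 μM in HEPES pH 7, MgCl2, DTT, Tween20. Then reacted 1 h with GST-ATF2 (10 nM) and ATP (100 μM). Phospho-ATF2 read by bead chemoluminescence at 520-620 nm, given as % inhibition at 1 μM versus kinase-free background.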

Chain of p38 MAP-kinase (Q16539 whole entry): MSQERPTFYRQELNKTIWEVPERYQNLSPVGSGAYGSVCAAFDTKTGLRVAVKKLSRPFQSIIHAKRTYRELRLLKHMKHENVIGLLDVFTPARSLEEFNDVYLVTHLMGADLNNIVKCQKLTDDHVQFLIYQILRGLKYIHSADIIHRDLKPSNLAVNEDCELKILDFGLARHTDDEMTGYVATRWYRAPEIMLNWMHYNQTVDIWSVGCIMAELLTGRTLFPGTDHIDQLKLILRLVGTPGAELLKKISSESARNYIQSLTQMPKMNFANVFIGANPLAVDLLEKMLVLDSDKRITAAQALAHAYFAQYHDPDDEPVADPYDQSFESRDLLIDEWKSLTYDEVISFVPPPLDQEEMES

| inhibition at 1 µM [%] | Compound |
| --- | --- |
| 97 | COc1c(NC(=O)c2ccc(C)c(Oc3ccnc(CC4CCCNCC4)n3)c2)cc(C(C)(C)C)cc1NS(C)(=O)=O (stereo not drawn) [5(53), 3-(2-azepan-4-ylmethyl-pyrimidin-4-yloxy)-N-(5-tert-butyl-3-methanesulphonylamino-2-methoxy-phenyl)-4-methyl-benzamide] |
| 99.7 | COc1c(NC(=O)c2ccc(C)c(Oc3cc(CC4CCCNCC4)ncn3)c2)cc(C(C)(C)C)cc1NS(C)(=O)=O (stereo not drawn) [5(54), 3-(6-azepan-4-ylmethyl-pyrimidin-4-yloxy)-N-(5-tert-butyl-3-methanesulphonylamino-2-methoxy-phenyl)-4-methyl-benzamide] |
| 99.6 | COc1c(NC(=O)c2ccc(C)c(Oc3ccnc(CC4CCNCC4)c3)c2)cc(C(F)(F)C(F)(F)F)cc1NS(C)(=O)=O [5(55), N-(3-methanesulphonylamino-2-methoxy-5-pentafluoroethyl-phenyl)-4-methyl-3-(2-piperidin-4-ylmethyl-pyridin-4-yloxy)-benzamide] |
| 96.3 | COc1c(NC(=O)c2ccc(C)c(Oc3cc(C(=O)N4CCN(C)CC4)ncn3)c2)cc(C(C)(C)C)cc1NS(C)(=O)=O [7(2), N-(5-tert-butyl-3-methanesulphonylamino-2-methoxy-phenyl)-4-methyl-3-[6-(4-methyl-piperazine-1-carbonyl)-pyrimidin-4-yloxy]-benzamide] |
| 55.9 | CNCc1cc(Oc2cc(C(=O)Nc3cc(C(C)(C)C)cc(NS(C)(=O)=O)c3OC)ccc2C)ncn1 [8(1), N-(5-tert-butyl-3-methanesulphonylamino-2-methoxy-phenyl)-4-methyl-3-(6-methylaminomethyl-pyrimidin-4-yloxy)-benzamide] |
| 98.7 | COc1c(NC(=O)c2ccc(C)c(Oc3cc(CN4CCN(C)CC4)ncn3)c2)cc(C(C)(C)C)cc1NS(C)(=O)=O [8(2), N-(5-tert-butyl-3-methanesulphonylamino-2-methoxy-phenyl)-4-methyl-3-[6-(4-methyl-piperazin-1-ylmethyl)-pyrimidin-4-yloxy]-benzamide] |
| 66 | CNCc1nccc(Oc2cc(C(=O)Nc3cc(C(C)(C)C)cc(NS(C)(=O)=O)c3OC)ccc2C)n1 [8(4), N-(5-tert-butyl-3-methanesulphonylamino-2-methoxy-phenyl)-4-methyl-3-(2-methylaminomethyl-pyrimidin-4-yloxy)-benzamide] |
| 95.8 | COc1c(NC(=O)c2ccc(C)c(Oc3ccnc(CN4CCNC(=O)C4)n3)c2)cc(C(C)(C)C)cc1NS(C)(=O)=O [8(5), N-(5-tert-butyl-3-methanesulphonylamino-2-methoxy-phenyl)-4-methyl-3-[2-(3-oxo-piperazin-1-ylmethyl)-pyrimidin-4-yloxy]-benzamide] |
| 94.1 | COc1c(NC(=O)c2ccc(C)c(Oc3cc(CN4CCNC(=O)C4)ncn3)c2)cc(C(C)(C)C)cc1NS(C)(=O)=O [8(7), N-(5-tert-butyl-3-methanesulphonylamino-2-methoxy-phenyl)-4-methyl-3-[6-(3-oxo-piperazin-1-ylmethyl)-pyrimidin-4-yloxy]-benzamide] |
| 97 | COc1c(NC(=O)c2ccc(C)c(Oc3ccnc(CN4CC[C@@H](O)C4)c3)c2)cc(C(C)(C)C)cc1NS(C)(=O)=O [8(12), (R)-N-(5-tert-butyl-3-methanesulphonylamino-2-methoxy-phenyl)-3-[2-(3-hydroxy-pyrrolidin-1-ylmethyl)-pyridin-4-yloxy]-4-methyl-benzamide] |
| 96.8 | COc1c(NC(=O)c2ccc(C)c(Oc3ccnc(CN4CC[C@H](O)C4)c3)c2)cc(C(C)(C)C)cc1NS(C)(=O)=O [8(13), (S)-N-(5-tert-butyl-3-methanesulphonylamino-2-methoxy-phenyl)-3-[2-(3-hydroxy-pyrrolidin-1-ylmethyl)-pyridin-4-yloxy]-4-methyl-benzamide] |

Further lines, the compound ahead of its results:

| Compound | inhibition at 1 µM [%] |
| --- | --- |
| COc1c(NC(=O)c2cc(F)c(C)c(Oc3ccnc(CN4CCN(C)CC4)n3)c2)cc(C(C)(C)C)cc1NS(C)(=O)=O [7(3), N-(5-tert-butyl-3-methanesulphonylamino-2-methoxy-phenyl)-3-fluoro-4-methyl-5-[2-(4-methyl-piperazin-1-ylmethyl)-pyrimidin-4-yloxy]-benzamide] | 98.8 |
| COc1c(NC(=O)c2cc(Cl)c(C)c(Oc3ccnc(CN4CCN(C)CC4)n3)c2)cc(C(C)(C)C)cc1NS(C)(=O)=O [7(5), N-(5-tert-butyl-3-methanesulphonylamino-2-methoxy-phenyl)-3-chloro-4-methyl-5-[2-(4-methyl-piperazin-1-ylmethyl)-pyrimidin-4-yloxy]-benzamide] | 98.5 |
| COc1c(NC(=O)c2ccc(C)c(Oc3ccnc(CN4CCOCC4)n3)c2)cc(C(C)(C)C)cc1NS(C)(=O)=O [8(3), N-(5-tert-butyl-3-methanesulphonylamino-2-methoxy-phenyl)-4-methyl-3-(2-morpholin-4-ylmethyl-pyrimidin-4-yloxy)-benzamide] | 95.2 |
| COc1c(NC(=O)c2ccc(C)c(Oc3ccnc(CN4CCN(C)CC4)n3)c2)cc(C(C)(C)C)cc1NS(C)(=O)=O [8(6), N-(5-tert-butyl-3-methanesulphonylamino-2-methoxy-phenyl)-4-methyl-3-[2-(4-methyl-piperazin-1-ylmethyl)-pyrimidin-4-yloxy]-benzamide] | 98.7 |
| COc1c(NC(=O)c2ccc(C)c(Oc3ccnc(CN4CCOCC4)c3)c2)cc(C(C)(C)C)cc1NS(C)(=O)=O [8(9), N-(5-tert-butyl-3-methanesulphonylamino-2-methoxy-phenyl)-4-methyl-3-(2-morpholin-4-ylmethyl-pyridin-4-yloxy)-benzamide] | 98.4 |
| COc1c(NC(=O)c2ccc(C)c(Oc3ccnc(CN4CCN(C)CC4)c3)c2)cc(C(C)(C)C)cc1NS(C)(=O)=O [8(10), N-(5-tert-butyl-3-methanesulphonylamino-2-methoxy-phenyl)-4-methyl-3-[2-(4-methyl-piperazin-1-ylmethyl)-pyridin-4-yloxy]-benzamide] | 98.9 |
| COc1c(NC(=O)c2ccc(C)c(Oc3ccnc(CN[C@H]4CCOC4)c3)c2)cc(C(C)(C)C)cc1NS(C)(=O)=O [8(11), (S)-N-(5-tert-butyl-3-methanesulphonylamino-2-methoxy-phenyl)-4-methyl-3-{2-[(tetrahydro-furan-3-ylamino)-methyl]-pyridin-4-yloxy}-benzamide] | 96.7 |
| CNCc1cc(Oc2cc(C(=O)Nc3cc(C(C)(C)C)cc(NS(C)(=O)=O)c3OC)ccc2C)ccn1 [8(14), N-(5-tert-butyl-3-methanesulphonylamino-2-methoxy-phenyl)-4-methyl-3-(2-methylaminomethyl-pyridin-4-yloxy)-benzamide] | 91.1 |
| COc1c(NC(=O)c2ccc(C)c(Oc3ccnc(CN[C@@H]4CCOC4)c3)c2)cc(C(C)(C)C)cc1NS(C)(=O)=O [8(15), (R)-N-(5-tert-butyl-3-methanesulphonylamino-2-methoxy-phenyl)-4-methyl-3-{2-[(tetrahydro-furan-3-ylamino)-methyl]-pyridin-4-yloxy}-benzamide] | 95.9 |
| COc1c(NC(=O)c2ccc(C)c(Oc3ccnc(CN4CCCN(C)CC4)n3)c2)cc(C(C)(C)C)cc1NS(C)(=O)=O [8(16), N-(5-tert-butyl-3-methanesulphonylamino-2-methoxy-phenyl)-4-methyl-3-[2-(4-methyl-homopiperazin-1-ylmethyl)-pyrimidin-4-yloxy]-benzamide] | 98.7 |

From US8946438B2, “Benzamides, production thereof, and use thereof as medicaments” (Boehringer Ingelheim International GmbH, priority 2008, dated 2015)
